The supplement of paper PMC10307832

What was measured:
Experiment in all cases: relative viability (nuclei count vs DMSO), 5 days (fraction); higher = more cells survive
[1] = compound: CC1=CC(=NN1)NC2=CC(=NC(=N2)/C=C/C3=CC=CC=C3)N4CCN(CC4)C + COc1cccc2cc(-c3nc([C@H]4CC[C@H](C(=O)O)CC4)n4ncnc(N)c34)[nH]c12 [OSI-027] (partner 0.5 µM)
How it was run: (§1)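 A single step with final 0.05% Triton X-100, 1% formaldehyde and 1 ug/ml Hoechst fixed the cells and stained nuclei 5 days after treatment. Lung cancer cell lines in 1536-well plates had been treated by pin tool the day after seeding with one drug alone or a fixed anchor-drug dose plus five library-drug doses (not always all listed) in √10 steps, and nuclei were counted on 4× images. Relative viability is the ratio of nuclei in treated wells to nuclei in vehicle wells, taken as the median of duplicate plates.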

[2] = compound: COC1=CC(c2cc3ccccc3[nH]2)=N/C1=C\c1[nH]c(C)cc1C [Obatoclax] + Nc1nc2[nH]cc(CCc3ccc(C(=O)N[C@@H](CCC(=O)O)C(=O)O)cc3)c2c(=O)[nH]1 [Pemetrexed] (partner 0.2 µM)
How it was run: as §1

[3] = compound: COC1=CC(c2cc3ccccc3[nH]2)=N/C1=C\c1[nH]c(C)cc1C [Obatoclax] + Cc1nc(Nc2ncc(C(=O)Nc3c(C)cccc3Cl)s2)cc(N2CCN(CCO)CC2)n1 [Dasatinib] (partner 0.075 µM)
How it was run: as §1

[4] = compound: COC1=CC(c2cc3ccccc3[nH]2)=N/C1=C\c1[nH]c(C)cc1C [Obatoclax] + COc1cccc2cc(-c3nc([C@H]4CC[C@H](C(=O)O)CC4)n4ncnc(N)c34)[nH]c12 [OSI-027] (partner 0.5 µM)
How it was run: as §1

[5] = compound: COC1=CC(c2cc3ccccc3[nH]2)=N/C1=C\c1[nH]c(C)cc1C [Obatoclax] + NC(=O)Nc1cc(-c2cccc(F)c2)sc1C(=O)N[C@H]1CCCNC1 [AZD7762] (partner 0.2 µM)
How it was run: as §1

Work on NCI-H650 yielded a relative viability ([1]; first compound 0.253 µM) of 0.597, a relative viability ([1]; first compound 0.8 µM) of 0.575 and a relative viability ([1]; first compound 2.53 µM) of 0.47. For the same cell line, the relative viability ([1]; first compound 8 µM) was 0.172, the relative viability ([2]; first compound 0.01 µM) was 1.01 and the relative viability ([2]; first compound 0.03162 µM) was 0.86. It also gave a relative viability ([2]; first compound 0.3162 µM) of 0.944, a relative viability ([2]; first compound 1 µM) of 0.443 and a relative viability ([3]; first compound 0.01 µM) of 0.451. For the same cell line, the relative viability ([3]; first compound 0.03162 µM) was 0.431, the relative viability ([3]; first compound 0.3162 µM) was 0.279 and the relative viability ([3]; first compound 1 µM) was 0.263. It also gave a relative viability ([4]; first compound 0.01 µM) of 0.568, a relative viability ([4]; first compound 0.03162 µM) of 0.449 and a relative viability ([4]; first compound 0.3162 µM) of 0.419. The relative viability ([4]; first compound 1 µM) was 0.274, the relative viability ([5]; first compound 0.01 µM) was 0.998 and the relative viability ([5]; first compound 0.03162 µM) was 0.925. It also gave a relative viability ([5]; first compound 0.3162 µM) of 0.513 and a relative viability ([5]; first compound 1 µM) of 0.324.
